Reference: patent US12091402B2 (Avilar Therapeutics, Inc., priority 2021, dated 2024)
Where two headings read alike, the source gives them in different places.

Columns and labels:
ASGPR = biological target: T1, ASGPR (Homo sapiens, UniProt P07306); assay: Affinity to ASGPR by surface plasmon resonance (SPR)
T1 sequence (P07306 1-291): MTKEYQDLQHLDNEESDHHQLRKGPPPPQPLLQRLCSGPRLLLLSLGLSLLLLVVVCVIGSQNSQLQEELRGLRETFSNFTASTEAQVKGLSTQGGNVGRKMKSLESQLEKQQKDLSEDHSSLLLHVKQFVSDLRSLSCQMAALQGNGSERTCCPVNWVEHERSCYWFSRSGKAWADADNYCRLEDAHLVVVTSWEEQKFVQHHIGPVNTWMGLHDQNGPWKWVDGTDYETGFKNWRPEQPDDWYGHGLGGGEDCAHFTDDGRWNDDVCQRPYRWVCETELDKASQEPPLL
Protocol: Biotinylated ASGPR (20 μg/ml) was immobilized on SA sensor chips (GE Healthcare) at flow rate of 5 μl/min for 90 sec reaching an immobilization level ranging from 500-3000 resonance units (RU). The running buffer was 50 mM HEPES, pH7.5, 150 mM NaCl, 50 mM CaCl2), 0.01% P20, 3% DMSO. The concentration of compounds vary from 2 mM to 5 nM depending on Kd values. The compounds are diluted 2 or 3-fold with 8 concentration points. Solutions containing serially diluted compounds are injected at a flow rate of 40 μL/min for 150-300 sec followed by a 90-300 sec dissociation phase for each concentration. The surface was regenerated using 50 mM HEPES, pH 7.5, 150 mM NaCl, 5 mM EDTA, 0.01% P20, 3% DMSO.
Data was processed using the analysis software in Biacore 8K to perform background subtraction, double referencing, and solvent correction. Values of affinity expressed as the dissociation constants (Kd) were determined by fitting the steady state binding responses (RUs) as a function of the concentration ([Compound]) using the following equation: RU=RUmax/(KD+[Compound]), where RU max is the calculated maximal response. Where appropriate double-referenced data were fit to using a 1:1 binding model for kinetic analysis.

[1] = biological target: T2, ASGPR receptor on the cell surface (HepG2 cells) (Homo sapiens, UniProt P07306); assay: Ternary complex formation assay (flow cytometry, HepG2); type: cell-based
T2 construct: host or cells: HepG2
T2 sequence (P07306 1-291): T1 sequence (P07306 1-291)
T2 sequence (P07307 1-311 partner): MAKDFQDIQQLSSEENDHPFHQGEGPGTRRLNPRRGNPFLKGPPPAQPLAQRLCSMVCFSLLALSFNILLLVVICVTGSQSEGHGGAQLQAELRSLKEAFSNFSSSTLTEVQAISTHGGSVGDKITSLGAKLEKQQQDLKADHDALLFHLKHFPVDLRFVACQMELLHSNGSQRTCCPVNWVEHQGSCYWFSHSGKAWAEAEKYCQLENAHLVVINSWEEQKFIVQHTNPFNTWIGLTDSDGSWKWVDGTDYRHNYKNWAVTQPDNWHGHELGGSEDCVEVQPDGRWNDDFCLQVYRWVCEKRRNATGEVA
Outline: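 HepG2 cells (1×10^5/well) incubated 1 h at 4 °C with 100 nM AF488-labeled anti-human IgG plus serial IgG-based degrader, or 100 nM AF488 rabbit anti-DNP plus serial DNP-based degrader. After washing, cell-associated AF488 MFI read by flow cytometry; peak MFI marks optimal degrader concentration for ternary complex.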

IgG = assay: Affinity to IgG by surface plasmon resonance (SPR); type: binding
Protocol: Immobilization levels ranging from 1000-1300 resonance units (RU) are obtained. The running buffer is 10 mM HEPES, pH 7.4, 400 mM NaCl, 0.005% P20, […].

HepG2 cells = assay: Cellular uptake assay of AF488-labeled antibody (HepG2); type: cell-based; details: HepG2 cells
Outline: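 HepG2 cells given 100 nM AF488-labeled human IgG or DNP antibody plus serial dilutions of matching degrader (0.1% DMSO final), 6 h at 37° C. Methanol-fixed, DAPI-stained and imaged by high-content analysis. Value is the fraction of AF488-positive cells over total DAPI-counted cells.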

[2] = 100 nM AF488-labeled antibody, 37° C. for 6 hours, class symbols, read-out: Uptake Assay EC50
[3] = HepG2 cells, ternary complex formation, read-out: TCF EC50

Compound | Kd (ASGPR) [nM] | EC50 [1] [nM] | Kd (IgG; Biacore 8K, 25° C., IgG on CM5 chip, read-out: IgG SPR Binding Kd) [nM] | EC50 (HepG2 cells; [2]) [nM] | EC50 ([1]; read-out: Ternary Complex EC50) [nM] | Kd (IgG; SPR, read-out: IgG KD) [nM] | EC50 (HepG2 cells; read-out: Uptake EC50) [nM] | EC50 [1, 3] [nM]
CC(C)C[C@@H]1NC(=O)[C@H](Cc2c[nH]cn2)NC(=O)[C@H](Cc2c[nH]c3ccccc23)NC(=O)[C@H](C)NC(=O)[C@@H]2CSSC[C@H](NC(=O)[C@H](Cc3c[nH]c4ccccc34)NC(=O)[C@H](C(C)C)NC(=O)[C@H](CC(C)C)NC(=O)[C@H](CCC(=O)O)NC(=O)CNC1=O)C(=O)N[C@@H]([C@@H](C)O)C(=O)N1CCC[C@@H]1C(=O)N1C[C@@H](NC(=O)CCOCCOCCOCCNC(=O)CCCc3cn(CCCCCC(=O)NC(COCCC(=O)NCCOCCOCCOCCOC[C@@]45CO[C@@H](O4)[C@H](Nc4nc(Cl)ns4)[C@@H](O)[C@H]5O)COCCC(=O)NCCOCCOCCOCCOC[C@@]45CO[C@@H](O4)[C@H](Nc4nc(Cl)ns4)[C@@H](O)[C@H]5O)nn3)C[C@H]1C(=O)N[C@@H](CC(=O)O)C(=O)N2 [Compound 8] | < 100 | < 100 | < 100 | < 100 |  |  |  | 
CC(C)C[C@@H]1NC(=O)[C@H](Cc2cnc[nH]2)NC(=O)[C@H](Cc2c[nH]c3ccccc23)NC(=O)[C@H](C)NC(=O)[C@@H]2CSSC[C@H](NC(=O)[C@H](Cc3c[nH]c4ccccc34)NC(=O)[C@H](C(C)C)NC(=O)[C@H](CC(C)C)NC(=O)[C@H](CCC(=O)O)NC(=O)CNC1=O)C(=O)N[C@@H]([C@@H](C)O)C(=O)N1CCC[C@@H]1C(=O)N1C[C@@H](NC(=O)COCCOCC(=O)NC[C@H]3OC[C@H](Nc4cncc(C(F)(F)F)n4)[C@@H](O)[C@H]3O)C[C@H]1C(=O)N[C@@H](CC(=O)O)C(=O)N2 [Compound 42] | < 100 | < 100 |  | < 100 | < 100 | < 100 | < 100 | 
CC(C)C[C@@H]1NC(=O)[C@H](Cc2c[nH]cn2)NC(=O)[C@H](Cc2c[nH]c3ccccc23)NC(=O)[C@H](C)NC(=O)[C@@H]2CSSC[C@H](NC(=O)[C@H](Cc3c[nH]c4ccccc34)NC(=O)[C@H](C(C)C)NC(=O)[C@H](CC(C)C)NC(=O)[C@H](CCC(=O)O)NC(=O)CNC1=O)C(=O)N[C@@H]([C@@H](C)O)C(=O)N1CCC[C@@H]1C(=O)N1C[C@@H](NC(=O)c3ccc(N4CCC(CN5CCN(C[C@H]6OC[C@H](Nc7cncc(C(F)(F)F)n7)[C@@H](O)[C@H]6O)CC5)CC4)cc3)C[C@H]1C(=O)N[C@@H](CC(=O)O)C(=O)N2 [Compound 68] | < 100 | < 100 |  |  |  | < 100 | < 100 | 
CC(C)C[C@@H]1NC(=O)[C@H](Cc2c[nH]cn2)NC(=O)[C@H](Cc2c[nH]c3ccccc23)NC(=O)[C@H](C)NC(=O)[C@@H]2CSSC[C@H](NC(=O)[C@H](Cc3c[nH]c4ccccc34)NC(=O)[C@H](C(C)C)NC(=O)[C@H](CC(C)C)NC(=O)[C@H](CCC(=O)N(C)C)NC(=O)CNC1=O)C(=O)N[C@@H]([C@@H](C)O)C(=O)N1CCC[C@@H]1C(=O)N1C[C@@H](NC(=O)CNC(COCCC(=O)NCCOCCOCCOCCOC[C@H]3OC[C@H](Nc4cncc(C(F)(F)F)n4)[C@@H](O)[C@H]3O)COCCC(=O)NCCOCCOCCOCCOC[C@H]3OC[C@H](Nc4cncc(C(F)(F)F)n4)[C@@H](O)[C@H]3O)C[C@H]1C(=O)N[C@@H](CC(=O)O)C(=O)N2 [Compound 75] | < 100 | < 100 |  |  |  | < 100 | < 100 | 
CC(C)C[C@@H]1NC(=O)[C@H](Cc2cnc[nH]2)NC(=O)[C@H](Cc2c[nH]c3ccccc23)NC(=O)[C@H](C)NC(=O)[C@@H]2CSSC[C@H](NC(=O)[C@H](Cc3c[nH]c4ccccc34)NC(=O)[C@H](C(C)C)NC(=O)[C@H](CC(C)C)NC(=O)[C@H](CCC(=O)O)NC(=O)CNC1=O)C(=O)N[C@@H]([C@@H](C)O)C(=O)N1CCC[C@@H]1C(=O)N1C[C@@H](NC(=O)c3ccc(-c4ccc(C(=O)NC[C@H]5OC[C@H](Nc6cncc(C(F)(F)F)n6)[C@@H](O)[C@H]5O)cc4)cc3)C[C@H]1C(=O)N[C@@H](CC(=O)O)C(=O)N2 [Compound 72] | < 100 |  |  |  |  | < 100 | < 100 | 500 to 1000
CC(C)C[C@@H]1NC(=O)[C@H](Cc2c[nH]cn2)NC(=O)[C@H](Cc2c[nH]c3ccccc23)NC(=O)[C@H](C)NC(=O)[C@@H]2CSSC[C@H](NC(=O)[C@H](Cc3c[nH]c4ccccc34)NC(=O)[C@H](C(C)C)NC(=O)[C@H](CC(C)C)NC(=O)[C@H](CCC(=O)O)NC(=O)CNC1=O)C(=O)N[C@@H]([C@@H](C)O)C(=O)N1CCC[C@@H]1C(=O)N1C[C@@H](NC(=O)CNC(COCCC(=O)NCCOCCOCCOCCOC[C@H]3OC[C@H](Nc4cncc(C(F)(F)F)n4)[C@@H](O)[C@H]3O)COCCC(=O)NCCOCCOCCOCCOC[C@H]3OC[C@H](Nc4cncc(C(F)(F)F)n4)[C@@H](O)[C@H]3O)C[C@H]1C(=O)N[C@@H](CC(=O)O)C(=O)N2 [Compound 45] | < 100 | < 100 |  | < 100 |  | < 100 |  | 
CC(C)C[C@@H]1NC(=O)[C@H](Cc2c[nH]cn2)NC(=O)[C@H](Cc2c[nH]c3ccccc23)NC(=O)[C@H](C)NC(=O)[C@@H]2CSSC[C@H](NC(=O)[C@H](Cc3c[nH]c4ccccc34)NC(=O)[C@H](C(C)C)NC(=O)[C@H](CC(C)C)NC(=O)[C@H](CCC(=O)O)NC(=O)CNC1=O)C(=O)N[C@@H]([C@@H](C)O)C(=O)N1CCC[C@@H]1C(=O)N1C[C@@H](NC(=O)CCOCCOCCOCCOCCNC(=O)CCCc3cn(CCCCCC(=O)NC(COCCC(=O)NCCOCCOCCOCCOC[C@@]45CO[C@@H](O4)[C@H](NC(=O)C(F)(F)F)[C@@H](O)[C@H]5O)COCCC(=O)NCCOCCOCCOCCOC[C@@]45CO[C@@H](O4)[C@H](NC(=O)C(F)(F)F)[C@@H](O)[C@H]5O)nn3)C[C@H]1C(=O)N[C@@H](CC(=O)O)C(=O)N2 [Compound 94] | < 100 |  |  |  |  | < 100 | < 100 | < 100
CC(C)C[C@@H]1NC(=O)[C@H](Cc2c[nH]cn2)NC(=O)[C@H](Cc2c[nH]c3ccccc23)NC(=O)[C@H](C)NC(=O)[C@@H]2CSSC[C@H](NC(=O)[C@H](Cc3c[nH]c4ccccc34)NC(=O)[C@H](C(C)C)NC(=O)[C@H](CC(C)C)NC(=O)[C@H](CCC(=O)O)NC(=O)CNC1=O)C(=O)N[C@@H]([C@@H](C)O)C(=O)N1CCC[C@@H]1C(=O)N1C[C@@H](NC(=O)CCOCCOCCOCCOCCNC(=O)CCCc3cn(CCCCCC(=O)NC(COCCC(=O)NCCOCCOCCOCCOC[C@@]45CO[C@@H](O4)[C@H](NC(=O)C(F)(F)F)[C@@H](O)[C@H]5O)(COCCC(=O)NCCOCCOCCOCCOC[C@@]45CO[C@@H](O4)[C@H](NC(=O)C(F)(F)F)[C@@H](O)[C@H]5O)COCCC(=O)NCCOCCOCCOCCOC[C@@]45CO[C@@H](O4)[C@H](NC(=O)C(F)(F)F)[C@@H](O)[C@H]5O)nn3)C[C@H]1C(=O)N[C@@H](CC(=O)O)C(=O)N2 [Compound 95] | < 100 | < 100 |  |  |  | < 100 | < 100 | 
CC(C)C[C@@H]1NC(=O)[C@H](Cc2c[nH]cn2)NC(=O)[C@H](Cc2c[nH]c3ccccc23)NC(=O)[C@H](C)NC(=O)[C@@H]2CSSC[C@H](NC(=O)[C@H](Cc3c[nH]c4ccccc34)NC(=O)[C@H](C(C)C)NC(=O)[C@H](CC(C)C)NC(=O)[C@H](CCC(=O)O)NC(=O)CNC1=O)C(=O)N[C@@H]([C@@H](C)O)C(=O)N1CCC[C@@H]1C(=O)N1C[C@@H](NC(=O)CCOCCOCCOCCOCCNC(=O)CCCc3cn(CCCCCC(=O)NC(COCCC(=O)NCCOCCOCCOCCOC[C@H]4OC[C@H](Nc5cncc(C(F)(F)F)n5)[C@@H](O)[C@H]4O)COCCC(=O)NCCOCCOCCOCCOC[C@H]4OC[C@H](Nc5cncc(C(F)(F)F)n5)[C@@H](O)[C@H]4O)nn3)C[C@H]1C(=O)N[C@@H](CC(=O)O)C(=O)N2 [Compound 4] | < 100 | < 100 |  | < 100 | < 100 | < 100 | < 100 | 
